Reference: US11230525B2, “Organic sulfur compound, method for preparing same, and pharmaceutical composition for preventing or treating cancer or an inflammatory disease, containing same as active ingredient” (SOOKMYUNG WOMENS UNIVERSITY INDUSTRY-ACADEMIC COOPERATION …, priority 2016, dated 2022)

Columns and labels:
[1] = system: breast cancer cell line (MDA-MB-231); assay: Cancer proliferation inhibitory activity (SRB, GI50), MDA-MB-231; type: cell-based; conditions: Homo sapiens, 48 hours
Description: (§1) Particularly, the cancer proliferation inhibitory activity of the compounds of comparative examples (Ajoene and the compounds isosteric to Ajoene wherein R1 is allyl or benzyl) and the compounds of examples of the present invention (the compounds not isosteric to Ajoene wherein R^1 is phenyl) was investigated in human cancer cell lines (renal cancer cell line (ACHN), breast cancer cell line (MDA-MB-231), colorectal cancer cell line (HCT-15), prostate cancer cell line (PC-3), gastric cancer cell line (NUGC-3) and lung cancer cell line (NCl-H23)).
(§2) At this time, the cancer cell lines (renal cancer cell line (ACHN), breast cancer cell line (MDA-MB-231), colorectal cancer cell line (HCT-15), prostate cancer cell line (PC-3), gastric cancer cell line (NUGC-3) and lung cancer cell line (NCl-H23)) above were purchased from American Type Culture Collection (Manassas, Va., USA). Cells were cultured in RPMI 1640 supplemented with 10% fetal bovine serum, which were maintained 37° C. under 5% CO2 wet atmosphere. The cells were distributed in a 96-well plate, which was not treated (treated only with 0.1% DMSO) or treated with the compounds of examples of the present (0.1 μM to 10 μM). 48 hours later, the cells were fixed in 50% trichloroacetic acid, followed by staining with 1% acetic acid containing 0.4% sulphorodamine B dissolved therein. The non-conjugated dye was removed by washing with 1% acetic acid, and the protein conjugated dye was extracted with 10 mM Tris base (pH 10.5). Then, OD540 was measured with VersaMax microplate reader (Molecular devices, Sunnyvale, Calif., USA). GI50 was calculated by using GraphPad Prism software (GraphPad Software, Inc., San Diego, Calif., USA).
(§3) Based on the results obtained in experimental example 1-1 above, the derivatives wherein R^1 is phenyl were additionally synthesized. The cancer proliferation inhibitory activity of the derivatives was evaluated by the same manner as described in experimental example 1-1.

[2] = system: renal cancer cell line (ACHN); assay: Cancer proliferation inhibitory activity (SRB, GI50), ACHN; type: cell-based; conditions: Homo sapiens, 48 hours
Description: as §1, §2, §3

[3] = system: gastric cancer cell line (NUGC-3); assay: Cancer proliferation inhibitory activity (SRB, GI50), NUGC-3; type: cell-based; conditions: Homo sapiens, 48 hours
Description: as §1, §2, §3

[4] = system: prostate cancer cell line (PC-3); assay: Cancer proliferation inhibitory activity (SRB, GI50), PC-3; type: cell-based; conditions: Homo sapiens, 48 hours
Description: as §1, §2, §3

[5] = system: colorectal cancer cell line (HCT-15); assay: Cancer proliferation inhibitory activity (SRB, GI50), HCT-15; type: cell-based; conditions: Homo sapiens, 48 hours
Description: as §1, §2, §3

[6] = system: lung cancer cell line (NCl-H23); assay: Cancer proliferation inhibitory activity (SRB, GI50), NCI-H23; type: cell-based; conditions: Homo sapiens, 48 hours
Description: as §1, §2, §3

HDAC 8 = molecular target: T1, HDAC 8 (Homo sapiens, UniProt Q9BY41); assay: HDAC enzyme fluorescence assay, HDAC 8; type: biochemical; parameters: Inhibitory activity (%) HDAC 8: concentration or dose not given beside the values; conditions: (HDAC inhibitory activity of example compound/HDAC inhibitory activity of SAHA) × 100
T1 sequence (Q9BY41 1-377): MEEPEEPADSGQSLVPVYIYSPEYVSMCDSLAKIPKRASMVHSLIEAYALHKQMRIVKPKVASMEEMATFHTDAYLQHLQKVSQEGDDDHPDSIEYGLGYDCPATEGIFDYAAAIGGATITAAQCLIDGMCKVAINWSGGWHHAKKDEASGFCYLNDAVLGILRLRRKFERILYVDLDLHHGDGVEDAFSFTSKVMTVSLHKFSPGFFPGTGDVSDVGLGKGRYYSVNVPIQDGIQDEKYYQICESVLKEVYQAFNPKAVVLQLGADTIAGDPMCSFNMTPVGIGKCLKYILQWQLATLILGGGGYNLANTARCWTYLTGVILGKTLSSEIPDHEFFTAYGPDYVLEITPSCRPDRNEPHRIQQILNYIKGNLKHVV
Experimental: Particularly, HDAC enzyme analysis was performed based on a uniform fluorescence emission assay. First, the compounds of examples of the present invention or comparative example 1 were diluted at different concentrations, which were treated to the analysis buffer containing 25 mM HEPES (pH 8.0), 137 mM NaCl, 1 mM MgCl2 and 2.7 mM KCL, followed by culture of the recombinant HDAC enzyme. 10 minutes later, Boc-Lys(acetyl)-AMC, the fluorescence inducing substrate, was added thereto, followed by further culture at 37° C. At this time, the concentration of the fluorescence inducing substrate and the culture time were adjusted according to the isotypes of the HDAC enzyme. The reaction was terminated by treating trypsin at room temperature for 20 minutes. The fluorescence intensity was measured using a fluorescence analyzer at an excitation wavelength of 380 nm and an emission wavelength of 460 nm, respectively. The inhibition rate was calculated from the measured fluorescence intensity of each well with comparing to that of the control well. IC50 of the compound was calculated by analyzing the dose-reaction inhibition curve.
The HDAC 8 inhibitory activity was presented as percentage of relative activity by the inhibitory activity of SAHA (Vorinostat) used as a reference compound.

Structure (SMILES) | GI50 [1] [µM] | GI50 [2] [µM] | GI50 [3] [nM] | GI50 [4] [nM] | GI50 [5] [nM] | GI50 [6] [nM] | Inhibitory activity (%) HDAC 8 (HDAC 8) [%]
COc1cccc([S+]([O-])C/C=C/SSCc2ccc(F)cc2)c1 (stereo not shown) [Example 21, (E)-1-(4-fluorobenzyl)-2-(3-(3-methoxyphenylsulfinyl)prop-1-enyl)disulfane] | 2.02 | 2.46 | 1560 | 1970 | 1750 | 2120 | 109.2
COc1ccc(CSS/C=C/C[S+]([O-])c2ccccc2)cc1 (stereo not shown) [Example 9, (E)-1-(4-methoxybenzyl)-2-(3-(phenylsulfinyl)prop-1-enyl)disulfane] | 1.54 | 2.94 | 1430 | 2720 | 3030 | 1450 | 48.7
C=CCSS/C=C\C[S+]([O-])c1cccc(OC)c1 (stereo not shown) [Example 16, (Z)-1-allyl-2-(3-(3-methoxyphenylsulfinyl)prop-1-enyl)disulfane] |  |  |  |  |  |  | 105.3
[O-][S+](C/C=C/SSCc1ccc(Cl)c(Cl)c1)c1ccccc1 (stereo not shown) [Example 13, (E)-1-(3,4-dichlorobenzyl)-2-(3-(phenylsulfinyl)prop-1-enyl)disulfane] | 7.5 | 1.97 | 1770 | 2300 | 2780 | 2920 | 76.6
[O-][S+](C/C=C/SSCc1ccccc1)c1ccccc1 (stereo not shown) [Example 5, (E)-1-benzyl-2-(3-(phenylsulfinyl)prop-1-enyl)disulfane] | 6.27 | 5.75 | 3710 | 3190 | 3970 | 2980 | 88.6
C=CCSS/C=C\C[S+]([O-])Cc1ccccc1 (stereo not shown) [Comparative Example 4, (Z)-1-allyl-2-(3-(benzylsulfinyl)prop-1-enyl)disulfane, reference compound] |  | 5.32 | 8070 | 3280 | 5930 | 5980 | 
COc1cccc([S+]([O-])C/C=C\SSCc2ccccc2)c1 (stereo not shown) [Example 20, (Z)-1-benzyl-2-(3-(3-methoxyphenylsulfinyl)prop-1-enyl)disulfane] | 4.34 | 3.72 | 3780 | 2960 | 2600 | 3460 | 114.3
CCCSS/C=C/C[S+]([O-])c1cccc(OC)c1 (stereo not shown) [Example 17, (E)-1-(3-(3-methoxyphenylsulfinyl)prop-1-enyl)-2-propyldisulfane] | 1.38 | 1.57 | 1590 | 1990 | 2170 | 1580 | 78.4
CCCSS/C=C/C[S+]([O-])Cc1ccccc1 (stereo not shown) [Comparative Example 6, (E)-1-(3-(benzylsulfinyl)prop-1-enyl)-2-propyldisulfane, reference compound] | 2.19 |  | 3270 |  | 3030 | 2930 | 
COc1ccc([S+]([O-])C/C=C\SSCc2ccc(Cl)cc2)cc1 (stereo not shown) [Example 36, (Z)-1-(4-chlorobenzyl)-2-(3-(4-methoxyphenylsulfinyl)prop-1-enyl)disulfane] | 1.78 | 2.41 | 2840 | 2280 | 1620 | 2190 | 98.7
COc1cccc([S+]([O-])C/C=C/SSCc2ccc(Cl)c(Cl)c2)c1 (stereo not shown) [Example 25, (E)-1-(3,4-dichlorobenzyl)-2-(3-(3-methoxyphenylsulfinyl)prop-1-enyl)disulfane] |  |  |  |  |  |  | 138.9
C=CCSS/C=C\C[S+]([O-])c1ccccc1 (stereo not shown) [Example 2, (Z)-1-allyl-2-(3-(phenylsulfinyl)prop-1-enyl)disulfane] |  |  |  |  |  |  | 37.5
COc1ccc([S+]([O-])C/C=C/SSCc2ccccc2)cc1 (stereo not shown) [Example 31, (E)-1-benzyl-2-(3-(4-methoxyphenylsulfinyl)prop-1-enyl)disulfane] |  |  |  |  |  |  | 74.6
COc1cccc([S+]([O-])C/C=C/SSCc2ccc(Cl)cc2)c1 (stereo not shown) [Example 23, (E)-1-(4-chlorobenzyl)-2-(3-(3-methoxyphenylsulfinyl)prop-1-enyl)disulfane] | 3.12 | 5.47 | 5920 | 3760 | 4370 | 4850 | 72.6
COc1ccc([S+]([O-])C/C=C\SSCc2ccc(F)cc2)cc1 (stereo not shown) [Example 34, (Z)-1-(4-fluorobenzyl)-2-(3-(4-methoxyphenylsulfinyl)prop-1-enyl)disulfane] | 1.09 | 1.34 | 2650 | 1350 | 1450 | 1490 | 68.1
[O-][S+](C/C=C\SSCc1ccc(F)cc1)c1ccccc1 (stereo not shown) [Example 8, (Z)-1-(4-fluorobenzyl)-2-(3-(phenylsulfinyl)prop-1-enyl)disulfane] |  |  |  |  |  |  | 24.9
C=CCSS/C=C/C[S+]([O-])c1ccccc1 (stereo not shown) [Example 1, (E)-1-allyl-2-(3-(phenylsulfinyl)prop-1-enyl)disulfane] |  |  |  |  |  |  | 32.1
C=CCSS/C=C/C[S+]([O-])Cc1ccccc1 (stereo not shown) [Comparative Example 5, (E)-1-allyl-2-(3-(benzylsulfinyl)prop-1-enyl)disulfane, reference compound] | 5.45 | 4.43 | 10300 | 6850 | 9100 | 4410 | 
CCCSS/C=C\C[S+]([O-])c1ccccc1 (stereo not shown) [Example 4, (Z)-1-(3-(phenylsulfinyl)prop-1-enyl)-2-propyldisulfane] |  |  |  |  |  |  | 115.2
[O-][S+](C/C=C/SSCc1ccc(F)cc1)Cc1ccccc1 (stereo not shown) [Comparative Example 8, (E)-1-(3-(benzylsulfinyl)prop-1-enyl)-2-(4-fluorobenzyl)disulfane, reference compound] |  | 4.1 |  | 2040 | 2270 | 2830 | 
[O-][S+](C/C=C\SSCc1ccc(F)cc1)Cc1ccccc1 (stereo not shown) [Comparative Example 9, (Z)-1-(3-(benzylsulfinyl)prop-1-enyl)-2-(4-fluorobenzyl)disulfane, reference compound] | 3.24 | 2.32 |  |  |  |  | 
[O-][S+](C/C=C/SSCc1ccccc1)Cc1ccccc1 (stereo not shown) [Comparative Example 7, (E)-1-benzyl-2-(3-(benzylsulfinyl)prop-1-enyl)disulfane, reference compound] |  | 4.22 |  | 3880 |  | 6410 | 
C=CC[S+]([O-])C/C=C\SSCc1ccccc1 (stereo not shown) [Comparative Example 3, (Z)-1-(3-(allylsulfinyl)prop-1-enyl)-2-benzyldisulfane, reference compound] | 4.64 | 3.26 | 2050 | 2310 | 4960 | 3590 | 
